ChEMBL document CHEMBL1121401, “Potential antitumor agents. 33. Quantitative structure--activity relationships for mutagenic activity and antitumor activity of substituted 4'-(9-acridinylamino)methanesulfonanilide derivatives” (J Med Chem, 1980)
Active and inactive are the calls of the source. The rule behind the calls is not given here.

Assays:
Mus musculus [1] = species: Mus musculus
Description: Drug dose in (mg/kg)/day to provide an increase in life span of 40% was determined; nr refers to Particular level of biological response required not reached before drug toxicity supervened

Salmonella typhimurium = conditions: Salmonella enterica subsp. enterica serovar Typhimurium
Mus musculus [2] = species: Mus musculus; remark: listed apart in the source
Description: Drug dose in (mg/kg)/day to provide an increase in life span of 40% was determined;nr refers to Particular level of biological response required not reached before drug toxicity supervened

Description for physchem: Ionization constant (pKa)

SMILES	pKa (physchem)	Log 1/D40 (Mus musculus [1])	Log M50 (Salmonella typhimurium)	Log 1/D40 (Mus musculus [2])
Cc1ccc2c(Nc3ccc(NS(C)(=O)=O)cc3)c3ccccc3nc2c1	7.49	–	–	–
CS(=O)(=O)Nc1ccc(Nc2c3ccccc3nc3ccc([N+](=O)[O-])cc23)cc1	–	Not reached	–	–
CS(=O)(=O)Nc1ccc(Nc2c3ccccc3nc3cccc(Cl)c23)cc1	5.86	–	–	–
CS(=O)(=O)Nc1ccc(Nc2c3ccccc3nc3ccc(Cl)cc23)cc1	6.42	Not reached	–	–
CS(=O)(=O)Nc1ccc(Nc2c3ccccc3nc3cc(S(C)(=O)=O)ccc23)cc1	5.65	Not reached	–	–
COc1cc(Nc2c3ccccc3nc3ccccc23)ccc1NS(C)(=O)=O [o-Amsacrine]	7.03	Not reached	–	–
CS(=O)(=O)Nc1ccc(Nc2c3ccccc3nc3cc(NS(C)(=O)=O)ccc23)cc1	–	–	inactive	–
CS(=O)(=O)Nc1ccc(Nc2c3ccccc3nc3ccccc23)c(Cl)c1	6.34	Not reached	–	–
COc1ccc2c(Nc3ccc(NS(C)(=O)=O)cc3)c3ccccc3nc2c1	7.57	–	–	–
CS(=O)(=O)Nc1ccc(Nc2c3ccccc3nc3ccccc23)cc1[N+](=O)[O-]	–	Not reached	–	–
Cc1cccc2nc3ccccc3c(Nc3ccc(NS(C)(=O)=O)cc3)c12	6.43	–	–	–
CS(=O)(=O)Nc1ccc(Nc2c3ccccc3nc3ccccc23)c(N)c1	7.65	–	–	–
CNc1ccc2c(Nc3ccc(NS(C)(=O)=O)cc3)c3ccccc3nc2c1	9.3	–	–	–
CS(=O)(=O)Nc1ccc(Nc2c3ccccc3nc3ccccc23)c([N+](=O)[O-])c1	4.86	Not reached	inactive	–
Cc1cc(NS(C)(=O)=O)ccc1Nc1c2ccccc2nc2ccccc12	7.38	–	–	–
COc1ccc2nc3ccccc3c(Nc3ccc(NS(C)(=O)=O)cc3)c2c1	6.87	Not reached	–	–

SMILES	pKa (physchem)	Log 1/D40 (Mus musculus [1])	Log M50 (Salmonella typhimurium)	Log 1/D40 (Mus musculus [2])
C[N+](C)=[N+]=Nc1ccc2c(Nc3ccc(NS(C)(=O)=O)cc3)c3ccccc3nc2c1	7.13	–	–	–
CS(=O)(=O)Nc1ccc(Nc2c3ccccc3nc3ccc(C(N)=O)cc23)cc1	6.34	Not reached	–	–
CCCCCCS(=O)(=O)Nc1ccc(Nc2c3ccccc3nc3ccccc23)cc1	–	Not reached	–	–
Cc1cc(Nc2c3ccccc3nc3ccccc23)ccc1NS(C)(=O)=O	7.08	Not reached	–	–
CS(=O)(=O)Nc1ccc(Nc2c3ccccc3nc3cc(C#N)ccc23)cc1	5.75	Not reached	inactive	–
CS(=O)(=O)Nc1ccc(Nc2c3ccccc3nc3cc(Br)ccc23)cc1	6.56	–	–	–
CS(=O)(=O)Nc1ccc(Nc2c3ccccc3nc3ccccc23)cc1Cl	6.44	Not reached	–	–
CS(=O)(=O)Nc1ccc(Nc2c3ccccc3nc3c(Cl)cccc23)cc1	5.92	–	–	Not reached
CS(=O)(=O)Nc1ccc(Nc2c3ccccc3nc3cnccc23)cc1	–	Not reached	–	–
Cc1ccc2nc3ccccc3c(Nc3ccc(NS(C)(=O)=O)cc3)c2c1	7.23	Not reached	–	–
COc1cccc2c(Nc3ccc(NS(C)(=O)=O)cc3)c3ccccc3nc12	7.15	–	–	–
CS(=O)(=O)Nc1ccc(Nc2c3ccccc3nc3cc(N=[N+]=[N-])ccc23)cc1	7	–	–	–
COc1cccc2nc3ccccc3c(Nc3ccc(NS(C)(=O)=O)cc3)c12	–	Not reached	–	–
COC(=O)Nc1ccc2c(Nc3ccc(NS(C)(=O)=O)cc3)c3ccccc3nc2c1	7.48	–	–	–
CS(=O)(=O)Nc1ccc(Nc2c3ccccc3nc3cc(Cl)ccc23)cc1	6.57	–	–	–
